The test system of assay [1] is chronic MPTP mouse model. Briefly: Traction test in chronic MPTP mouse model. It counts as in vivo, C57/BL mice. From the text: Injection was implemented every 3.5 days for 5 weeks. MPTP was converted into metabolite MPP^+ by monoamine oxidase B in glial cells after crossing the blood-brain barrier. Due to its high affinity for dopamine transporters, MPP^+ can easily enter dopaminergic neurons. By inhibiting the toxic effect of the mitochondrial complex I, it can cause oxidative stress and break intracellular calcium homeostasis, thus causing the apoptosis or necrosis of dopaminergic neurons, and finally achieving the goal of simulating PD. Probenecid was used to prevent the rapid clearance and excretion of MPTP in the brain and kidneys. In the process of model preparation, the amount of probenecid had no significant influence on the content of the dopamine in the brain. After modeling, the mice were administrated (p.o.) with the drug for one month. The two forepaws of the mice were suspended on a horizontal metal wire (5 mm in diameter and 30 cm from the ground), and the time for mice to fall from the metal wire was recorded, wherein a time over 60 seconds was counted as 60 seconds. The mice were trained twice a day before the test. […] Finally, the scores were calculated and the time for the mice to fall from the metal wire were recorded, wherein a time over 60 seconds was counted as 60 seconds.

Assay [2] deals with chronic MPTP mouse model. In words: Morris water maze test in chronic MPTP mouse model. Type of assay: in vivo, C57/BL mice. Particulars: Compound A 100 mg/kg/d p.o. for one month; FIG. 2; 100 mg/kg/day. The method, then:
A chronic MPTP (1-methyl-4-phenyl-1,2,3,6-tetrahydropyridine) mouse model was prepared to simulate PD. 250 mg/kg probenecid was intraperitoneally injected into the mice and then 25 mg/kg MPTP was intraperitoneally injected 0.5 hour later. Injection was implemented every 3.5 days for 5 weeks. MPTP was converted into metabolite MPP^+ by monoamine oxidase B in glial cells after crossing the blood-brain barrier. Due to its high affinity for dopamine transporters, MPP^+ can easily enter dopaminergic neurons. […]
The Morris water maze test can measure the changes in cognitive and memory ability. […] A camera with a display system was placed above the water maze, and the computer automatically tracked the timing and recorded the swimming track. […] The videos of the swimming path were recorded by the camera and computer, and the time of finding the platform from the entry point, namely the latency of escaping to the platform, was recorded. […] If they could not find and climb onto the platform in 90 seconds, the mice were artificially guided to find the platform and stay on the platform for 10 seconds, and the latency was recorded as 90 seconds. […] The latency was calculated on the average of four training sessions per day. […]

Entries after “also recorded” stand apart in the source; their conditions may differ.

Take `CCCN[C@H]1CCc2nc(N)sc2C1` [Pramipexol, reference compound]: in the assay with chronic MPTP mouse model [1] (Pramipexol 0.075 mg/kg/d p.o. for one month after modeling), the “suspension time compared with the chronic MPTP model” value is on record as “decreased”.

Regarding `Cc1c(O)c(O)cc[n+]1[C@@H](CO)Cc1ccccc1` [Compound A, (R)-3,4-dihydroxyl-N-(1′-benzyl-2′-hydroxyethyl)-2-methyl pyridine chloride], the “cognitive function of PD model animals (water maze latency)” value in the assay on chronic MPTP mouse model [2] was “may improve the cognitive function; also recorded: partially improve the cognitive function”. Also, the “suspension time compared with the chronic MPTP model control group” value with chronic MPTP mouse model [1] (Compound A 25 mg/kg/d p.o. for one month after modeling) and in the assay with chronic MPTP mouse model [1] (Compound A 100 mg/kg/d p.o. for one month after modeling) was “no significant difference” in each case. The “suspension score compared with the chronic MPTP model control group” value in the assay on chronic MPTP mouse model [1] (Compound A 25 mg/kg/d p.o. for one month, FIG. 1) is recorded as “increased”. In addition, the “muscle strength and coordination (conclusion)” value in the assay with chronic MPTP mouse model [1] (chronic MPTP mouse model, dose not given) was “tendency to improve muscle strength and coordination”.

The record behind these values is patent publication US12234208B2, “3,4-dihydroxy-n-(1′-benzyl-2′-hydroxyethyl)-2-methylpyridine chloride, and synthesis and use thereof” (HANGZHOU ZEDE PHARMA-TECH CO. LTD., priority 2020, dated 2025).
